“Also recorded” adds a separate entry of the source. Values belong to the molecule of their own block, whether it stands above or below them.
Tests used:
desumoylation = test: stabilization of SUMOylated proteins in lysates from HA-SUMO transfected HEK 293T cells; format: biochemical, human; details: G5 5 μM, C4 300 μM
Procedure: Untransfected HEK 293T cell lysates were treated with the vehicle alone (DMSO at 1%) or compound and incubated at 37° C. for 2 h. Samples were analyzed by SDS-PAGE and immunoblotting with antibody recognizing K48-linked ubiquitin. D=DMSO; G5=G5 isopeptidase inhibitor 1. A-D show titrations of different compounds (see FIG. 29B for structures). E-H Lysates were prepared from HEK 293T cells expressing HA-SUMO and treated with vehicle alone (DMSO, 1%) or compound. Samples were incubated for the appropriate time and analyzed by SDS-PAGE and immunoblotting with anti-HA antibody. Representative experiments are shown. E. Vehicle control. F. G5, 5 μM; G. C4, 300 μM. H. Quantification of blots as in E-G, N=2 average and range. I-J. Lysates were prepared from HEK 293T cells expressing HA-Ub and treated with either vehicle alone (1% DMSO) or compound at 37° C. for 3 h. Samples were analyzed by SDS-PAGE and immunoblotting with anti-HA antibody. I. A representative experiment. J. Quantitation of experiments in I (N=2 average and range shown). […]
Similar effects were observed when the endogenous K48-linked ubiquitin pool was monitored in lysates prepared from wild-type HEK 293T cells (FIG. 37A-D). Unfortunately, K63-linked ubiquitin could not be detected in these lysates. The ability of C4 to stabilize SUMOylated proteins in lysates from HA-SUMO transfected HEK 293T cells was also assessed.

DUBs = test: decomposition of high molecular weight ubiquitinated proteins (HMW-Ub) in lysates of HEK 293T cells expressing HA-Ub; format: biochemical, human; details: HEK 293T HA-Ub lysates, 37° C.
Procedure: FIG. 30 depicts data showing that diphenylcarbonates inhibit the decomposition of high molecular weight ubiquitinated proteins (HMW-Ub). Lysates were prepared from HEK 293T cells expressing HA-ubiquitin. Samples were incubated at 37° C. and reactions were quenched by the addition of reducing Laemmli buffer. HMW-Ub was assessed by SDS-PAGE and immunoblotting with anti-HA antibody. A. Representative immunoblots measuring the decomposition of HMW-Ub in lysates treated with either the DMSO vehicle, G5 (10 μM) or C4 (500 μM). B. Plot of the decomposition of HMW-Ub in lysates treated with DMSO and C4 (500 μM) (N=2; error bars denote range). C. Inhibition of HMW-Ub decomposition by diphenylcarbonates. Lysates were treated with diphenylcarbonates (50 μM). “-” denotes no treatment; D, 1% DMSO vehicle; IU1, an USP14-specific inhibitor; Bort, bortezomib, a proteasome inhibitor. D. Representative decomposition of HMW-Ub after 2 h incubation in the presence of varying concentrations of C4. See also FIG. 36. E. Quantitation of D. The values of EC50 reported in FIG. 29B are the average and S.E.M. of at least 3 independent experiments. See also FIG. 37 and FIG. 38.
Cells overexpressing HA-ubiquitin were prepared as above. Pellets were typically stored at −80° C. until required, at which time they were thawed on ice. Cell lysis was performed in lysis buffer using a Dounce homogenizer (10 strokes, with grinding, on ice: typical yield approx. 2-5 mg protein per transfected T75 flask for HEK 293T cells; 1-3 mg protein from a T75 flask for Cos-1). Crude lysate was centrifuged at 17000 g for 10 min at 4° C., after which time the concentration of the lysate was normalized to 1 mg/mL. The lysate was aliquoted into PCR strip tubes (typical volumes 75-50 μL) and compound in DMSO was added to this to give a final concentration of DMSO of 1%. Tubes were briefly centrifuged, overlaid with Chill-out wax (50 μL) and placed in a PCR machine at 37° C. with heated lid set to 37° C. Aliquots (9 μL) were removed at the stated times and immediately quenched in (2× final concentration) reducing (dithiothreitol) loading buffer and frozen (−19° C.) till required. Western blot analysis was carried out using standard methods. Samples were resolved by SDS-PAGE, transferred to PVDF [(0.45 μm) (Towbin buffer, tank apparatus, 90 V 1 hour, then overnight at 30 V, 4° C.)] then blocked in 15% milk in TBS-T HS (100 mM Tris HCl, pH 7.6, 500 mM NaCl, 0.5% […]) for at least 2 hours at RT. Afterward, membrane was washed in TBS-T HS then probed with anti HA-HRP (1:18000) for 1.33 hours at RT. Membrane was washed 3 times in TBS-T HS (15 mins) then once in TBS (15 mins) and exposed to ECL II and visualized using blue biofilm. […] When required, membranes were stripped in 100 mM glycine pH 4, 500 mM NaCl, 1% SDS, 5 mM BME, at 55° C. for 19 mins, then analyzed.
Lysates were prepared from HEK 293T cells expressing N-terminally HA-tagged ubiquitin (HA-Ub) to facilitate the observation of ubiquitinated proteins. In the absence of a DUB inhibitor, the HMW-Ub pool decomposed with a half-life of 34 min (FIG. 30A,B). […] Similar results were obtained in lysates prepared from Cos-1 cells expressing HA-Ub.

B16/F10 cells = test: proliferation and cell cycle of B16/F10 cells; format: cell-based, mouse; details: 72 h, flow cytometry
Procedure: A. MCF7 cells were treated with C17 for 4 h and Mdm2 levels were measured. B. As in A, P53 measured. C. As in A, P21 measured. D. MCF7 and B16/F10 cells were treated with C17 every 24 hours. After 72 hours, the number of viable cells was measured by Alamar Blue®.
MCF7 cells were dosed every 2 hours with the indicated concentration of C15. After 6 hours, cells were lysed by freeze thaw and then sonicated in 0.5% SDS. A. Total lysates were blotted for K48-linked ubiquitin and actin. B. Normalized K48-linked ubiquitin signal was plotted as a function of concentration of C15 (N=2). C. […] Doxorubicin (Dox) is a DNA damaging agent that serves as a positive control for the induction of P53. D. Quantitation of P53 levels in C relative to actin (N=2). […] MCF7 cells were treated under the stated conditions then analyzed for cell cycle. F. DMSO treated cells. G. Cells treated with C17 (25 μM), dosed every 24 hours. H. Cells treated with C17 (50 μM), dosed every 24 hours. […] These cells were left for 72 h (single dose) after which time the total number of viable cells was analyzed using Alamar Blue®. All data are n≧4 showing mean+/−s.e.m. K. MCF7 cells were plated with C17 for 24 hours after which time the total number of viable cells was measured by Alamar Blue®. L. B16/F10 cells were treated with DMSO, C17 or P005091 for 72 h. […] After this time, cells were analyzed by flow cytometry.
All cells were grown at 37° C. in a 5% CO2 humidified atmosphere in DMEM supplemented with 10% heat inactivated FBS, 1× glutamax, and 1× penicillin/streptomycin. […] Typically clarified lysate was analyzed. […] Lysates were centrifuged (20 000 rpm, microcentrifuge, Eppendorf 5417 C) concentration was measured, then 0.1% SDS was added and lysates were sonicated for a total of 30 s (in 10 s bursts). Protein concentration was determined using Bradford assay with IgG as standard and analyzed by western blot as delineated below {[9 μg total protein for K48-linked ubiquitin (1:9000 antibody dilution), SMAD4 (1:500) or PARP (1:1000)]; [30-40 μg was loaded for K63-linked ubiquitin (1:1500), Mdm2 (1:1000) or Abl (1:1500). […]

20S proteasome = 20S proteasome (Homo sapiens, UniProt P28074); test: proteasome activity (purified 20S proteasome; GFP-Ub (G76V) in Cos-1 cells); format: biochemical; details: 20S proteasome 30 minutes, Suc-Leu-Tyr-AMC 100 μM; Cos-1 GFP-Ub (G76V) 8 hours
Procedure: A. Purified 20S proteasome was treated with compound for 30 minutes prior to addition of substrate (Suc-Leu-Tyr-AMC, 100 μM). B. Cos-1 cells expressing with GFP-Ub (G76V) were treated with compound for 8 hours, then the level of GFP was measured by flow cytometry.

USP9x = target: T1, USP9x (Homo sapiens, UniProt Q93008); test: HA-Ub-VS labeling in K562 cell lysates; format: biochemical; details: compound 40 minutes, then HA-Ub-VS (1.5 μM) 20 minutes
T1 construct: endogenous in cells; host or cells: K562 cell lysate
T1 sequence (Q93008 whole entry): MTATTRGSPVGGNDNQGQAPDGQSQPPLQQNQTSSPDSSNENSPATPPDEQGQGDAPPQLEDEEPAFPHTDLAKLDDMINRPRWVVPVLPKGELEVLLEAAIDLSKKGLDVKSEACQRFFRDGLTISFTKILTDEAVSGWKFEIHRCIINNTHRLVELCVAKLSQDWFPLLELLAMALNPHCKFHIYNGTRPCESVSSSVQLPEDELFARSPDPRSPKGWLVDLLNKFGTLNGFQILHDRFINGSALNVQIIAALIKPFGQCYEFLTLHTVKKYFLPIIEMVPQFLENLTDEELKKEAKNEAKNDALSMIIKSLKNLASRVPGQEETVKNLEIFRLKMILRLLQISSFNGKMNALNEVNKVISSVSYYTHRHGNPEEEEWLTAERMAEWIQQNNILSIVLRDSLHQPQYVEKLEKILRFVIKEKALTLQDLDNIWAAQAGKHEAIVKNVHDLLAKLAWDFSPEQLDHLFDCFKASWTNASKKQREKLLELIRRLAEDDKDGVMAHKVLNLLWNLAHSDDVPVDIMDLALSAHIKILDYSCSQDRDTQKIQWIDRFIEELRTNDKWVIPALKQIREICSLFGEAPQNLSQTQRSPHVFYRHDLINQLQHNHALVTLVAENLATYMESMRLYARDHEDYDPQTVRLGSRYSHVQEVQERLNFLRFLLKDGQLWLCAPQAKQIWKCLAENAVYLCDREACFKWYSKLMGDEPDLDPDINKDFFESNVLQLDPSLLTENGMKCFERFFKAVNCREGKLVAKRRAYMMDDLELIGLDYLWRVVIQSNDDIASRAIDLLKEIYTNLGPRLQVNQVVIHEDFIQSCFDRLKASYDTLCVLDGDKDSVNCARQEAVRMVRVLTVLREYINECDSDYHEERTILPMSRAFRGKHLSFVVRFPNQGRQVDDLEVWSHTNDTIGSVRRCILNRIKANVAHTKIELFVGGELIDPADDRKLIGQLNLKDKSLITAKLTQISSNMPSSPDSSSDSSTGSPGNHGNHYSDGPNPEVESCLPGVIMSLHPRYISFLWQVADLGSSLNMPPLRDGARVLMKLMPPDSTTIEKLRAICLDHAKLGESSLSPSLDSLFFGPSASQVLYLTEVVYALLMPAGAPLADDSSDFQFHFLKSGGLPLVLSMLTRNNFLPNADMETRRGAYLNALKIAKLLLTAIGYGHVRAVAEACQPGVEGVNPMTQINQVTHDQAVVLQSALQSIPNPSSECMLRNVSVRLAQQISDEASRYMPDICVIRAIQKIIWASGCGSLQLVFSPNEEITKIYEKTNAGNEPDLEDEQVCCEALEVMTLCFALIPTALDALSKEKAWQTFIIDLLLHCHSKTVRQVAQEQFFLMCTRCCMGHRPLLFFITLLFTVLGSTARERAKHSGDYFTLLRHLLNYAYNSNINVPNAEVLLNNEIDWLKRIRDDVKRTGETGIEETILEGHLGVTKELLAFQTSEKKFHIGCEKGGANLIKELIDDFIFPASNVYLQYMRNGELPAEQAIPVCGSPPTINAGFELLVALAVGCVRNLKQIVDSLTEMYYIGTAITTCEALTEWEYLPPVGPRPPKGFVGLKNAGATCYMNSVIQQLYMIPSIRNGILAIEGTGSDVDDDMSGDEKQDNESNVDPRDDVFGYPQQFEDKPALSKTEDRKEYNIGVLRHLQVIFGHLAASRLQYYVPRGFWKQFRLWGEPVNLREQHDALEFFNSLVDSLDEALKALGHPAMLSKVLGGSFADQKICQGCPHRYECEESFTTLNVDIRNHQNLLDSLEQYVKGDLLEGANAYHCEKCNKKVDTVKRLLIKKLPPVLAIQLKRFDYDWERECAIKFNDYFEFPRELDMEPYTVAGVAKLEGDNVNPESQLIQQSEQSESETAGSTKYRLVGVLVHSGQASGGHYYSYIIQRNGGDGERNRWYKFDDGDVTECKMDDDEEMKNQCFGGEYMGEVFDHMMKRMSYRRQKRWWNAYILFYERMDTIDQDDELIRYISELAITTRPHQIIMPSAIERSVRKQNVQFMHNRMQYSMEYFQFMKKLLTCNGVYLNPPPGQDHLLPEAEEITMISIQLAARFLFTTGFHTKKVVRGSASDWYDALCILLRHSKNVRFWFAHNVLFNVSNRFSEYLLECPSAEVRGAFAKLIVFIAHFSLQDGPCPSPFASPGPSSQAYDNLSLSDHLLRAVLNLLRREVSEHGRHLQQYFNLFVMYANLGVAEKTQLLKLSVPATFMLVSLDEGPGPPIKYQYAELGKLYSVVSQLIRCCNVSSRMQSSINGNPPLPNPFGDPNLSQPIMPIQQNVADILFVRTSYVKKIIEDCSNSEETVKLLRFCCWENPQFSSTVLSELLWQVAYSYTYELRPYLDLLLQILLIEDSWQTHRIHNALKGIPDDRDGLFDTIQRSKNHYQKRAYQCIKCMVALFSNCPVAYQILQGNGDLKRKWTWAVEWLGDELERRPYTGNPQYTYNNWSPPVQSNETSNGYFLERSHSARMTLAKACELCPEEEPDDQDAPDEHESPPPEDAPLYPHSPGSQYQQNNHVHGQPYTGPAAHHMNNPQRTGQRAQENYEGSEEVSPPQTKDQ
Procedure: HA-Ub-VS is commonly used to label DUBs in cell lysates. […] A. and B. K562 cell lysates were treated with compound for 40 minutes prior to activity labeling with HA-Ub-VS (1.5 μM) for 20 minutes. Samples were analyzed by SDS-PAGE and immunoblotting with anti-HA antibody. C. […] Values were derived by fitting to the in Prism.

K562 cells = test: apoptosis, cell cycle and viability of K562 cells by flow cytometry; format: cell-based, human; details: annexin V-FITC / propidium iodide, 24 hours (TU50 also 8 hours)
Procedure: (§1) K562 cells are from a myelogenous leukemia line that expresses Bcr-Abl kinase. A. K562 cells were treated with TU50 for 24 hours after which time the cells were treated with annexin V-FITC and propidium iodide. Cells were then analyzed by flow cytometry. Cells showing only annexin V-FITC were considered apoptotic whereas cells showing both annexin V-FITC and propidium iodide were considered necrotic. N=2. All points show a significant difference to the vehicle (DMSO) with p<0.05. […] All points show a significant difference to vehicle (DMSO) with p<0.02. C. Same as A, but the incubation period was 8 hours. N>2. All points show a significant difference to DMSO with p<0.02. D, K562 cells were treated with TU50 for 4 hours. Samples were analyzed by SDS-PAGE and immunoblotting with anti-Bcr-Abl antibody. E. Quantitation of blot in D. The signal for tubulin was used to normalize the Bcr-Abl signal. N=3.
(§2) FIG. 40 depicts data showing that diphenyl carbonates induce the degradation of Bcr-Abl kinase. A. K562 cells were treated with C17 for 24 h (1 dose) then analyzed for Bcr-Abl expression by western blot with anti-Abl antibody. B. Quantitation of blots in A normalized to actin. C. K562 cells were treated with C17 for 24 h then the amount of cells in G1 and apoptosis were recorded (N=3). D. K562 were treated with C15 for 4 h then analyzed for Bcr-Abl expression using western blot. E. Quantitation of Bcr-Abl from D normalized to tubulin (N=4). F. Same K562 lysates were separately analyzed for K63-linked ubiquitin. G. Quantitation of blots in F (N=4). Differences between all bars is significant p<0.01). H. K562 cells were treated with C15 for 24 h after which time cells were fixed in ethanol, treated with propodium iodide/RNAse then analyzed by FACS. Viability was calculated using forward and side scatter. I. Same experiment as H but red fluorescence was measured to determine DNA content

Bcr-Abl kinase = test: Bcr-Abl levels in K562 cells by immunoblotting; format: cell-based, human; details: TU50 4 hours
Procedure: as §1
FIG. 34 depicts data showing that diphenylcarbonates cause the accumulation of HMW-Ub and reduce the levels of Bcr-Abl in K562 cells. A. K562 cells were treated with diphenyl carbonates (50 μM) for 2 h and then assayed for the accumulation of K48-linked Ub. B. As in A, but Bcr-Abl was measured by immunoblotting with anti-Abl antibodies. C. K562 cells were treated with C17 (50 μM) in the presence and absence of bortezomib (6 μM) for 4 hours and Bcr-Abl was measured by immunblotting with anti-Abl antibodies. D. Quantitation of blot in C. Significance: DMSO relative to C17 and bortezomib p=0.002; DMSO relative to C17, p=0.03. E. K562 cells were treated with C15 for 4 hours then analyzed for SMAD4 monoubiquitination by western blot. F. Quantitation of blots in A. (N=3). See also FIG. 40.
as §2
Transfected cells were harvested 1.5 days post transfection. […] Typically clarified lysate was analyzed.

[1] = test system: G76V ubiquitin-GFP fusion protein; test: G76V ubiquitin-GFP fusion protein fluorescence, Example 5; format: cell-based; details: Example 5, FIG. 9 bottom panel
Procedure: Cells treated with 4 (100 μM; as defined in FIG. 3) show PARP cleavage that indicates caspases are active. The fluorescence of G76V ubiquitin-GFP fusion protein increases in the presence of inhibitor 4 (as defined in FIG. 3), as expected if degradation […] due to inhibition of DUBs. In contrast, GFP fluorescence […] when the proteasome is inhibited by bortezomib.

[2] = test system: ubiquitin-proteasome system; test: GFP-G76V-Ub assay in HEK 293T cells; format: cell-based, human; details: diphenyl carbonates 100 μM, bortezomib 20 μM, G5 2 μM
Procedure: FIG. 32 depicts data showing that diphenyl carbonates inhibit DUBs in HEK 293T cells. A. Viability of HEK 293T cells assessed by the propidium iodide exclusion method: diphenyl carbonate (100 μM), bortezomib (V, 20 μM) and G5 (2 μM). N≧3, mean+/−s.d. B. HEK 293T cells were treated with the stated compounds (50 μM) for 2 h and then assayed for the accumulation of K48-linked Ub species. C. As in A, but K63-linked Ub was assayed. D. HEK 293T cells were treated with C14, C15, C17, C18 (100 μM) or DMSO for 2 hours, then harvested, lysed and treated with HA-Ub-VS. After 30 min, lysates were analyzed by SDS-PAGE and probed for HA, tubulin and actin. An intervening lane was removed for clarity. E. HEK 293T cells expressing Ub-G76V-GFP were treated with diphenyl carbonates (100 μM), bortezomib (20 μM) and G5 (2 μM). […] N>3, Mean+/−s.d. See also FIG. 39.
FACS was carried out on a […] FACS-Calibur. For HEK 293T and K562, cells were resuspended by repeated pipetting/agitation of the incubation media, followed by dilution into PBS. For Cos-1, MCF-7, and CHO cells, media was removed and trypsin was added. Harvested cells were placed in FACS buffer (0.5% FBS in PBS with 3 μg/mL propidium iodide) 30 s prior to analysis. All data were analyzed using FlowJo V10, from TreeStar (Ashland, Oreg.). Approximately 2500 cells were sorted per replicate. Cells were sorted by propidium iodide dye exclusion to give a “viable population”. GFP positive cells within this group were identified relative to untransfected controls. Then the geometric mean of the whole GFP positive population within the viable population was calculated. Typical transfection efficiencies for G76V ubiquitin were 60-70% for both Cos-1 and HEK 293T and 25-40% for CHO cells, based on GFP positive cells.
The activity of the diphenylcarbonates in the GFP-G76V-Ub assay, which monitors flux through the ubiquitin-proteasome system, was also investigated. The G76V mutation creates an unstable Ub fusion protein that is degraded in a proteasome dependent process. GFP fluorescence increased when HEK 293T cells expressing GFP-G76V-Ub were treated with the proteasome inhibitor bortezomib and decreased upon treatment with G5 (FIG. 39). This decrease has been attributed to increased flux through the ubiquitin-proteasome system triggered by the accumulation of HMW-Ub. […] Perhaps the inability of the diphenylcarbonates to inhibit UCH-L1/3 accounts for the stability of GFP-G76V-Ub. This selectivity might also explain the low cytoxicity of these compounds relative to G5.

cathepsin C = cathepsin C (Homo sapiens, UniProt P53634); test: cathepsin C inhibition; format: biochemical; details: compounds numbered as in FIG. 5
cathepsin C, sequence (P53634 25-463, species assumed): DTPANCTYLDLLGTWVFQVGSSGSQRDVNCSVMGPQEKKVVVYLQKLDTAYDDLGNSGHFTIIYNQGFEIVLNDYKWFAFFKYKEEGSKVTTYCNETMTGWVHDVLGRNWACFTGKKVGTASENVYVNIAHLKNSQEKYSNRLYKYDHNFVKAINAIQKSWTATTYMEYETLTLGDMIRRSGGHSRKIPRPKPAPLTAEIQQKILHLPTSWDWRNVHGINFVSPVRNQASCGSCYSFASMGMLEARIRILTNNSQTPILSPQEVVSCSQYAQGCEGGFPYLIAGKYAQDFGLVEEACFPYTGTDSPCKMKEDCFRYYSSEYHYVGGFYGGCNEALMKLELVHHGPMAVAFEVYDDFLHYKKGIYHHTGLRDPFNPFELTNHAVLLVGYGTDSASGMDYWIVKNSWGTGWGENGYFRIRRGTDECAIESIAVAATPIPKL

SMILES: NCc1ccc(OC(=O)Oc2ccccc2)cc1 [Compound C4, 4-(aminomethyl)phenyl(phenyl)carbonate]
inhibition of desumoylation (desumoylation): Neither G5 nor C4 inhibited desumoylation | stabilization of the HMW-Ub pool (DUBs): prevented decomposition of the HMW-Ub pool

SMILES: CC(=O)c1cc([N+](=O)[O-])c(Sc2cccc(Cl)c2Cl)s1 [Compound P005091, reference compound]
cell cycle distribution (B16/F10 cells): decrease in cells in G1 phase and an increase in G2

effect on proteasome activity (20S proteasome): no effect on proteasome activity | EC50 (USP9x): 11 ± 4 µM
SMILES: CC(C)(C)OC(=O)NCCc1ccc(N=C=S)cc1 [TU46]

effect on proteasome activity (20S proteasome): no effect on proteasome activity
SMILES: O=C(NCc1ccc(N=C=S)cc1)OCc1ccccc1 [TU49]
apoptosis of K562 cells (K562 cells): induce apoptosis of K562 cells | Bcr-Abl kinase level (Bcr-Abl kinase): cause degradation of Bcr-Abl kinase

SMILES: CC(C)C[C@H](NC(=O)[C@H](Cc1ccccc1)NC(=O)c1cnccn1)B(O)O [bortezomib, reference compound]
GFP fluorescence of G76V ubiquitin-GFP [1]: decreases | stabilization of the HMW-Ub pool (DUBs): failed to stabilize the HMW-Ub pools | GFP fluorescence [2]: Only bortezomib treatment caused an increase in GFP fluorescence; also recorded: increased

SMILES: NCc1ccc(OC(=O)Oc2ccc(Cl)cc2)cc1 [compound 3]
inhibition of cathepsin C (cathepsin C): does not

— patent US20160090351A1, “INHIBITORS OF DEUBIQUITINATING PROTEASES” (BRANDEIS UNIVERSITY, priority 2013, published 2016)
